Measurements from patent US12653914B2, “Compounds for fast and efficient click release” (priority 2019, dated 2026).
Read-outs that look alike come from different tables or passages of the source.

Tests used:
[1] = Second order rate constants, TCO with tetrazine activators, stopped-flow spectrophotometry in PBS; conditions: PBS at 37° C., 25 μM tetrazine, 50 μM TCO
Method: Second order rate constants for the reaction of tetrazines activators with 1.13 and 1.71 were determined using a SX20 stopped-flow spectrophotometer from Applied Photophysics. Measurements were performed at 37° C. with 25 μM tetrazine and 50 μM TCO in PBS, in triplicates, monitored at 535 nm. Data was analyzed using GraphPad Prism. Second order rate constants were determined from nonlinear fitting of the absorbance vs. time curves to the second order rate equation. […] Importantly, 2.17 and 2.18 are very reactive, but afford low release yields with TCO triggers that are not part of this invention (i.e. 1.71) [Versteegen et al., Angew. Chem. Int. Ed. 2013, 52, 14112-14116].

[2] = Trigger stability in vitro in PBS; type: physicochemical; conditions: 37° C., 200 μM, after 48 h, n=3
Method: (§1) 1.13 was incubated at 37° C. in PBS and human plasma at a concentration of 200 μM. The concentration after 12, 24 and 48 h was determined (n=3) by titration with activator 2.9 and simultaneous absorbance measurements.

[3] = type: in vitro ADME; conditions: human, 200 μM
Method: as §1

In the case of `COC(=O)[C@]1(O)CC/C=C/[C@H](OC(=O)NCCOCCOCCOCCO)CC1` [Compound 1.13, Methyl(1S,4E,6R)-1-hydroxy-6-{[(2-{2-[2-(2-hydroxyethoxy)ethoxy]ethoxy}ethyl)carbamoyl]oxy}cyclooct-4-ene-1-carboxylate], the k2 ([1]; activator 2.12) is reported as 260 ± 40 M⁻¹ s⁻¹, the k2 ([1]; activator 2.17) is reported as 8700 ± 1200 M⁻¹ s⁻¹ and the k2 ([1]; activator 2.18) is reported as 10400 ± 1100 M⁻¹ s⁻¹. For the same compound, the k2 ([1]; activator 2.9) was 70 ± 10 M⁻¹ s⁻¹, the “intact TCO” value [2] was 101±5% and the “residual intact TCO” value ([3]; 24 h) was 98±7%. For the same compound, the “residual intact TCO” value ([3]; 48 h) was 76±9%.
